Measured values: patent US8524861B2, “Treatment of bacterial infections” (priority 2004, dated 2013)
Where no end group is shown, it is not given here.

Columns and labels:
Assay type in all cases: cell-based
[1] = tested on: Pseudomonas aeruginosa (ATCC strain 9027); settings: for IC50: ATCC strain 9027; for Effectiveness against Pseudomonadales, in particular P. aeruginosa, in words: summary in description
Protocol: (§1) Bacterial Stocks—ATCC derived stock bacteria were obtained from Oxoid Limited. Pseudomonas aeruginosa (ATCC strain 9027) or Staphylococcus aureus (ATCC strain 6538P) were obtained in ‘Cultiloop’ format. Stocks were prepared by inoculating 20 ml of LB broth with a single Cultiloop, and incubating overnight at 37° C. Cells present after overnight incubation were harvested by removing larger aggregates by centrifugation (3000 g, 10 minutes), and withdrawing 16 ml of the supernatant, which was likely to contain mainly planktonic bacteria. To this, 4 ml of sterile glycerol was added (the latter having been sterilised by autoclaving). The resultant suspension was divided between 15× 1 ml cryovials before freezing at −85° C.
(§2) Preliminary experiments were carried out to estimate the amount to dilute bacterial stocks which when on addition of 25 μl of diluted stock to 100 μl of fresh LB broth would result in bacteria in log phase growth after overnight incubation at 37° C.
(§3) The peptides were examined for antibacterial efficacy against Staphylococcus aureus. To test the efficacy of peptides, dilutions of test peptides or PBS (for use as a control) were prepared in LB broth, and 100 μl aliquots of these placed in 96-well plates. A vial of planktonic bacterial stock was thawed in a 37° C. incubator and diluted to the level previously determined which would produce log phase growth after overnight incubation (see above). 25 μl of this bacterial dilution was then added to the test wells (some wells containing LB broth without peptide were left without any bacterial inoculation, these being used as a blank). After overnight growth, the concentration of bacteria in individual wells was assessed by measuring absorbance at 620 nm, in a microplate spectrophotometer. The average absorbance of wells for specific concentrations of peptides was calculated, and from this the percentage inhibition (relative to untreated wells) was also calculated and plotted against concentration (along with an estimate of error on that % inhibition).
Peptides in accordance with the invention were also examined for antibacterial efficacy against Pseudomonas aeruginosa using the same technique as described above to calculate the IC50 values.
Points were obtained by dividing the average for six treated wells by the average for six untreated wells, and bars show an estimate of the error for these calculated values.
(§4) The inventor constructed an expanded library of peptides derived from either apolipoprotein B or apolipoprotein E in order to further evaluate polypeptides in accordance with the invention. Further experiments were then conducted to investigate the antibacterial activity of this peptide library against the bacteria P. aeroginosa, S. aureus and S. pneumoniae. The methods used to determine the IC50 values for each peptide were as described in the Example 1.

[2] = tested on: Staphylococcus aureus (ATCC strain 6538P); settings: for IC50: ATCC strain 6538P; for Activity against Staphylococcus, in particular S. aureus, in words: summary in description
Protocol: as §1, §2, §3, §4

[3] = tested on: Staphylococcus aureus, Pseudomonas aeruginosa, and Streptococcus pneumoniae; test: Antibacterial activity, overall statements over the test bacteria
Text: The inventors conducted exhaustive experiments to assess the antibacterial activity of peptides from apolipoproteins and derivatives thereof. Peptides and derivatives from ApoE and ApoB were a particular focus. […] Example 1 illustrates the efficacy of the polypeptides according to the invention compared to apoE141-149 and apoB3359-3367 (i.e. non-tandem repeats) and other peptides derived from apolipoproteins.
The activity of polypeptides in accordance with the invention can be seen in Tables 5, 6, 7 and 8.
as §3, §4

Streptococcus pneumoniae = tested on: Streptococcus pneumoniae
Protocol: as §3, with “inhibition). […] The inventor constructed an expanded library of peptides derived from either apolipoprotein B or apolipoprotein E in order to further evaluate polypeptides in accordance with the invention. Further experiments were then conducted to investigate the antibacterial activity of this peptide library against the bacteria P. aeroginosa, S. aureus and S. pneumoniae. The methods used to determine the IC50 values for each peptide were as described in the Example 1.” for “inhibition).”

Substance | IC50 [1] | IC50 [2] | Antibacterial activity, in words, bacterium not specified [3] | Activity against Staphylococcus, in particular S. aureus, in words [2] | Effectiveness against Pseudomonadales, in particular P. aeruginosa, in words [1] | IC50 (Streptococcus pneumoniae)
RLTRKRGRLTRKRG-NH2 (C-terminus assumed) [MU_74] | 31 µM | > 53 µM |  |  |  | 
LRKLRKRLL [apoE141-149, reference compound] |  |  | no detectable antibacterial activity |  |  | 
YRKYRKRYYYRKYRKRYY-NH2 (C-terminus assumed) [MU_6] | > 53 µM |  |  | particularly active |  | 
WRKWRKRWWFRKFRKRFF-NH2 (C-terminus assumed) [MU_117] | 10 µM | 7 µM |  |  |  | 
modified apoB3359-3367: modified form of the apoB3359-3367 9-mer; sequence only in the drawing of Table 1 (LRTRKRGRK) [reference compound] |  |  | no detectable antibacterial activity |  |  | 
RWRKRGRKRWRKRGRK-NH2 (C-terminus assumed) [MU_69] | > 53 µM | 27 µM |  |  |  | 
Ac-LRKLRKRLRKLRKR-NH2 (N-terminus and C-terminus assumed) [GIN 08] | 9.2 µM |  |  |  | particularly effective | > 53 µM
CRKCRKRCCCRKCRKRCC [MU_12] |  |  | do not show antibacterial activity |  |  | 
RWRKRWRKRWRKRWRK-NH2 (C-terminus assumed) [MU_71] | 28 µM | 18.5 µM |  |  |  | 
MRKLRKRLMMRKLRKRLM-NH2 (C-terminus assumed) [MU_43] | 17 µM |  | particularly effective |  |  | 
Ac-LRKLRKRLLRLRKLRKRLLR-NH2 (N-terminus and C-terminus assumed) [MU_82] |  | 13 µM | particularly effective |  | particularly effective | 
WRKWRKFFFRKWRKRWW-NH2 (C-terminus assumed) [MU_116] | 14 µM | 6.5 µM |  |  |  | 
WRKWRKRWWRWRKWRKRWWR-NH2 (C-terminus assumed) [MU_83] | 15 µM | 9 µM | particularly effective |  |  | 
RKRGWKWRKRGWKW-NH2 (C-terminus assumed) [MU_73] | 42.5 µM | 22 µM | particularly effective |  |  | 
WRKRWWRWRKRWWR-NH2 (C-terminus assumed) [MU_81] | 28 µM | 20 µM |  |  |  | 
Ac-LRKLRKRLLWRKWRKRWW-NH2 (N-terminus and C-terminus assumed) [MU_111] | 12.5 µM | 7 µM |  |  |  | 
FRKFRKRFFFRKFRKRFF-NH2 (C-terminus assumed) [MU_7] | 6 µM | 11 µM | particularly effective |  |  | 
Ac-LRKLRKRLLWRKWRKRLL-NH2 (N-terminus and C-terminus assumed) [MU_113] |  | 11 µM |  |  | particularly effective | 
WRKWRKRWRKWRKRW-NH2 (C-terminus assumed) [MU_59] | 7.5 µM | 11 µM | particularly effective |  |  | 
DRKDRKRDDDRKDRKRDD [MU_3] |  |  | do not show antibacterial activity |  |  | 

Substance | IC50 [1] | IC50 [2] | Antibacterial activity, in words, bacterium not specified [3] | Activity against Staphylococcus, in particular S. aureus, in words [2] | Effectiveness against Pseudomonadales, in particular P. aeruginosa, in words [1] | IC50 (Streptococcus pneumoniae)
WRKWRKRWWRKWRKRWW-NH2 (C-terminus assumed) [MU_58] | 7.5 µM | 8 µM | particularly effective | particularly active |  | 
RLTRKRGLK [apoB3359-3367, monomeric 9-mer of apolipoprotein B, reference compound] |  |  | no detectable antibacterial activity |  |  | 
Ac-WRKLRKRLLLRKLRKRLL-NH2 (N-terminus and C-terminus assumed) [MU_115] | 3 µM | 9 µM | particularly effective |  | particularly effective | 
MRKMRKRMMMRKMRKRMM-NH2 (C-terminus assumed) [MU_5] | > 53 µM | > 53 µM |  |  |  | 
RWRKRWRKRWRKRWRK-NH2 (C-terminus assumed) [MU_37] | 23 µM | 35 µM | particularly effective |  |  | 
IRKIRKRIIIRKIRKRII-NH2 (C-terminus assumed) [MU_8] | 45 µM | > 53 µM |  |  |  | 
WRKWRKRWWFRKWRKRWW-NH2 (C-terminus assumed) [MU_60] | 12.5 µM | 6 µM | particularly effective | particularly active |  | 
RRKRRKRRRRRKRRKRRR-NH2 (C-terminus assumed) [MU_16] | > 53 µM |  |  |  |  | > 53 µM
Ac-LRKRLLLRKLRKRLL-NH2 (N-terminus and C-terminus assumed) [GIN 02] | 8.5 µM |  |  |  | particularly effective | 
RWRKRWRWRKRWRWRKRW-NH2 (C-terminus assumed) [MU 84] | 53 µM | 15 µM |  |  |  | 
LRVRLASHLRKLRKRLLRDADDLQKRLAVY LRVRLASHLRKLRKRLLRDADDLQKRLAVY (LRVRLASHLRKLRKRLLRDADDLQKRLAVYLRVRLASHLRKLRKRLLRDADDLQKRLAVY) [tandem repeat of Azuma's peptide, 60-mer dimer of apoE133-162] |  |  | improved antibacterial efficacy |  |  | 
WRKWRKRWWWRKWRKRWW-NH2 (C-terminus assumed) [MU_4] |  |  | particularly effective | particularly active |  | 
Ac-WRKWRKRLLLRKLRKRLL-NH2 (N-terminus and C-terminus assumed) [MU_114] |  | 5.5 µM |  | particularly active | particularly effective | 
WRKWRKRFFWRKWRKRFF-NH2 (C-terminus assumed) [MU_61] | 3 µM | 5 µM | particularly effective | particularly active | particularly effective | 
WRKWRKRWRKWRKR-NH2 (C-terminus assumed) [GIN 32] | 5 µM |  |  |  |  | 
LLRKRLKRLLLRKRLKRL-NH2 (C-terminus assumed) [MU_24] | 7 µM | 34 µM | particularly effective |  |  | 
LRKLRKRLLLRK [GIN 05] |  |  | do not show antibacterial activity |  |  | 
WRWRRRWRKWRWRRRWRK-NH2 (C-terminus assumed) [MU_25] | > 53 µM | > 53 µM |  |  |  | 
WRWKKKWRKWRWKKKWRK-NH2 (C-terminus assumed) [MU_26] | 52 µM | 52 µM |  |  |  | 
Ac-LRKLRKRLLLRKLRKRWW-NH2 (N-terminus and C-terminus assumed) [MU_112] | 7 µM | 7 µM | particularly effective |  |  | 
